Test results taken from patent US10408836B2 (priority 2013, dated 2019).

Experiments:
[1] = biological target: A/Texas/12/07 (H3N2/07-R) neuraminidase (Influenza A virus, UniProt D1FVK3)
[2] = biological target: Recombinant N1 protein A/Anhui/01/05 (N1/05-S) (Influenza A virus, UniProt D0PQ82); test: biochemical; conditions: pH 6, read-out: % of max NA act. + EDTA (pH)
[3] = biological target: Parainfluenza virus Type 2 NA (Human parainfluenza 2 virus, UniProt P25465); conditions: pH 5
[4] = biological target: Recombinant N1 protein A/California/04/09 (N1pdm/09-R) (Influenza A virus (H1N1), UniProt C3W5S3); conditions: pH 6, 25000 µM
[5] = biological target: A/Florida/21/08 (H1N1/08-R) neuraminidase (Influenza A virus, UniProt G3LYR2); conditions: pH 6, 25000 µM
[6] = biological target: B/Florida/04/06 (Yama/08-S) neuraminidase (Influenza B virus, UniProt J7JZU5); test: biochemical; conditions: pH 7, read-out: % of max NA act. + EDTA (pH)
[7] = biological target: S. pneumoniae ATCC 6305 (Strep 6) NanA (Streptococcus pneumoniae, UniProt P62575); conditions: pH 7
[8] = biological target: A/California/07/09 (H1N1pdm/09-S) neuraminidase (Influenza A virus, UniProt C3W6G3); test: biochemical; conditions: pH 6, read-out: % of max NA act. + EDTA (pH)
[9] = biological target: S. pneumoniae ATCC 49619 (Strep 4) NanA (Streptococcus pneumoniae, UniProt P62575); conditions: pH 7
[10] = biological target: B/Brisbane/60/08 (Vict/06-S) neuraminidase (Influenza B virus, UniProt C0LT34); test: biochemical; conditions: pH 7, read-out: % of max NA act. + EDTA (pH)
[11] = biological target: B/Memphis/20/96 (Vict/96-R) neuraminidase (Influenza B virus, UniProt C7FPS7); conditions: pH 7, 25000 µM
[12] = biological target: Recombinant N1 protein A/California/04/09 (N1pdm/09-S) (Influenza A virus (H1N1), UniProt C3W5S3); test: biochemical; conditions: pH 6, read-out: % of max NA act. + EDTA (pH)
[13] = biological target: A/North Carolina/39/09 (H1N1pdm/09-R) neuraminidase (Influenza A virus, UniProt C3W6G3); conditions: pH 6, 25000 µM
[14] = biological target: A/Brisbane/59/07-Like (H1N1/07-R) neuraminidase (Influenza A virus, UniProt D5F1R0); conditions: pH 6, 25000 µM
[15] = biological target: A/Brisbane/10/07-Like (H3N2/07-S) neuraminidase (Influenza A virus, UniProt A8W8R2); type: biochemical; conditions: pH 7, 25000 µM
influenza virus = type: binding
H3N2/07-R = type: binding, influenza A
NA of influenza = type: biochemical; conditions: pH 7
NanA of S. pneumoniae = type: biochemical; conditions: pH 7

## CC(=O)N[C@H]1[C@H]([C@H](O)[C@H](O)CO)OC(C(=O)O)=C[C@@H]1N=C(N)N [Zan, Zanamivir]
[1]
  IC50: 2.6 nM

## O=C(O)CN(CCN(CC(=O)O)CC(=O)O)CC(=O)O [EDTA, ethylenediaminetetraacetic acid]
[2]
  activity at 25000 µM: 43%
[3]
  % of max NA act. + EDTA (pH): 27%
[4]
  % of max NA act. + EDTA (pH): 94%
[5]
  % of max NA act. + EDTA (pH): 36%
[6]
  activity at 25000 µM: 88%
[7]
  % of max NA act. + EDTA (pH): 112%
[8]
  activity at 25000 µM: 44%
[9]
  % of max NA act. + EDTA (pH): 108%
[1]; pH 7, 25000 µM
  % of max NA act. + EDTA (pH): 61%
[10]
  activity at 25000 µM: 92%
[11]
  % of max NA act. + EDTA (pH): 25%
[12]
  activity at 25000 µM: 94%
[13]
  % of max NA act. + EDTA (pH): 63%
[14]
  % of max NA act. + EDTA (pH): 54%
[15]
  % of max NA act. + EDTA (pH): 50%

## MBL: mannose-binding lectin, recombinant host protein used as capturing agent
Influenza virus
  limit of detection: virus dilution at which virus is captured: 270-450 fold dilution
  viral capture, ranking of receptors: best capturing factor among all mannose binding receptors
H3N2/07-R
  limit of detection: virus dilution: 450 fold dilution

## O=S(=O)(O)CCNC1CCCCC1 [CHES, N-cyclohexyl-2-aminoethanesulfonic acid]
NA of influenza
  NA enzymatic activity of influenza in presence of buffer: substantially resistant
NanA of S. pneumoniae
  NanA activity of S. pneumoniae in presence of buffer: severely reduced
  NanA inhibition by sulfonic acid-containing buffer: susceptibility to CHES and CAPS inhibition

## O=S(=O)(O)CCCNC1CCCCC1 [CAPS, N-cyclohexyl-3-aminopropanesulfonic acid]
NanA of S. pneumoniae
  NanA inhibition by sulfonic acid-containing buffer: susceptibility to CHES and CAPS inhibition

B1: Fetuin: highly sialylated protein isolated from bovine serum, used as capturing agent (protein, UniProt P12763 19-359, looked up)
Alpha-2-HS-glycoprotein: IPLDPVAGYKEPACDDPDTEQAALAAVDYINKHLPRGYKHTLNQIDSVKVWPRRPTGEVYDIEIDTLETTCHVLDPTPLANCSVRQQTQHAVEGDCDIHVLKQDGQFSVLFTKCDSSPDSAEDVRKLCPDCPLLAPLNDSRVVHAVEVALATFNAESNGSYLQLVEISRAQFVPLPVSVSVEFAVAATDCIAKEVVDPTKCNLLAEKQYGFCKGSVIQKALGGEDVRVTCTLFQTQPVIPQPQPDGAEAEAPSAVPDAAGPTPSAAGPPVASVVVGPSVVAVPLPLHRAHYDLRHTFSGVASVESSSGEAFHVGKTPIVGQPSIPGGPVRLCPGRIRYFKI
Influenza virus
  limit of detection: virus dilution at which virus is captured: 150-450 fold dilution
H3N2/07-R
  limit of detection: virus dilution: 30 fold dilution
